Experimental findings from patent US20230014181A1, “CULTURE SYSTEM AND METHODS FOR IMPROVED MODELING OF NEUROLOGICAL CONDITIONS” (Genentech, Inc., priority 2021, published 2023) are described below.

Where a name gives a salt, the structure may show the parent alone. Read-outs that look alike come from different tables or passages of the source.

Assay [1] has as its system human iPSC neurons and astrocytes treated with 5 μM sAβ42s. Description: Focused small molecule screen, double culture (neuron, astrocyte), rescue from sAβ42s toxicity, high content imaging. Conditions: double culture, 5 μM sAβ42s; for percent rescue from sAβ42s toxicity at 6.25 µM / percent rescue from sAβ42s toxicity at 12.5 µM / percent rescue from sAβ42s toxicity at 25 µM / percent rescue from sAβ42s toxicity at 50 µM: Homo sapiens, iPSC. The class given is cell-based. Here is the method: FIGS. 11A-11D show synapse % rescue versus MAP2% rescue (FIGS. 11A-11B) and beta III tubulin % rescue versus MAP2% rescue (FIGS. 11C-11D), in neurons and astrocytes (FIGS. 11A and 11C) or neurons, astrocytes, and microglia (FIGS. 11B and 11D) treated with 5 μM sAβ42s and small molecules from a focused screen of known neuroprotective agents at multiple concentrations (50 μM, 25 μM, 12.5 μM and 6.25 μM (double culture), 50 μM, 12.5 μM, 3.1 μM and 0.78 μM (triple culture). Small molecules that prevented toxicity in dendrites (MAP2), synapses (Synapsin 1/2), cell count (CUX2), or axons ([…]) at or above 30% were considered hits (red dotted line).
Neurons from both NSC lines were evaluated by immunofluorescence staining. Briefly, cells were fixed with 4% PFA and 4% sucrose at room temperature for 20 minutes using Bravo automation. Fixed cells were then washed 2 times with PBS using Biotek 406 microplate washer (Beckman Coulter), followed by permeabilization and blocking by incubation with a solution containing 1×PBS, 0.1% Triton X-100, 2% donkey serum, and 1% BSA at room temperature for 30 minutes. Blocking solution was removed and cells were incubated with primary antibodies in blocking solution overnight at 4° C. After washing 6 times with PBS on Biotek 406 cell plate washer (Beckman Coulter), cells were then incubated with fluorophore-conjugated secondary antibodies for 1 hour at room temperature in the dark to avoid photobleaching. Cells were then washed 6 more times in with PBS before imaging. Fluorescent images were captured using IN Cell 6000 confocal microscope (GE Healthcare Life Sciences). The image analysis was performed with IN Cell 6000 analysis software.
Prior to experimentation, media volume in wells containing neurons was equalized with liquid handling automation (Bravo) in order to ensure precise control of concentrations. All Aβ42 oligomers, anti-Aβ, small molecules, inflammatory cytokines were prepared at 10× concentration and added to Neuronal Culture Media at an appropriate volume. For the repeated dosing experiments, the media were refreshed 50% at each dosing first, before adding Aβ42 oligomers, and/or anti-Aβ antibody at the specified final concentration.
In double (neuron, astrocyte) and triple (neuron, astrocyte, microglia) cultures, each small molecule listed in Table 1 was tested in the AD model paradigm at up to four concentrations. Molecules that characterized ≥30% rescue in any of the four measurements of dendrites area (MAP2), synapses count (synapsin 1/2), or cell count (CUX2), or axon area (Beta III Tubulin; “BT3”)) were classified as hits (FIGS. 11A-11D, Table 2, and Table 3).

For assay [2], the system named is human iPSC neurons, astrocytes and microglia treated with 5 μM sAβ42s. Description: Focused small molecule screen, triple culture (neuron, astrocyte, microglia), rescue from sAβ42s toxicity. The class given is cell-based. Conditions: for percent rescue from sAβ42s toxicity at 50 µM / percent rescue from sAβ42s toxicity at 0.78 µM / percent rescue from sAβ42s toxicity at 3.13 µM / percent rescue from sAβ42s toxicity at 12.5 µM: Homo sapiens, iPSC; for percent rescue from sAβ42s toxicity at 3.13 µM: 3.13 μM compound. The essentials:
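A hit was any compound giving ≥30% rescue of dendrite area (MAP2), synapse count, CUX2 cell count or axon area when dosed against 5 μM sAβ42s toxicity. Testing used iPSC-derived double (neuron/astrocyte) or triple (plus microglia) cultures, at four concentrations of 50, 25, 12.5 and 6.25 μM for double and 50, 12.5, 3.1 and 0.78 μM for triple cultures.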

[3] abbreviates: 6.25 μM compound, read-out: % B3T rescue.
[4] abbreviates: 6.25 μM compound, read-out: % Cux2 rescue.
Where [5] appears, read: 6.25 μM compound, read-out: % MAP2 rescue.
Setting [6] is: 6.25 μM compound, read-out: % Synapse rescue.
Where [7] appears, read: 25 μM compound, read-out: % B3T rescue.
Setting [8] is: 25 μM compound, read-out: % Cux2 rescue.
Setting [9] is: 25 μM compound, read-out: % MAP2 rescue.
The mark [10] stands for this setting: 25 μM compound, read-out: % Synapse rescue.
Setting [11] is: 50 μM compound, read-out: % B3T rescue.
Where [12] appears, read: 50 μM compound, read-out: % Cux2 rescue.
Where [13] appears, read: 50 μM compound, read-out: % MAP2 rescue.
Where [14] appears, read: 50 μM compound, read-out: % Synapse rescue.
The mark [15] stands for this setting: 50.00 μM compound, read-out: % B3T rescue.
Where [16] appears, read: 50.00 μM compound, read-out: % MAP2 rescue.
Where [17] appears, read: 50.00 μM compound, read-out: % Synapse rescue.
The mark [18] stands for this setting: 0.78 μM compound, read-out: % B3T rescue.
Setting [19] is: 0.78 μM compound, read-out: % MAP2 rescue.
The mark [20] stands for this setting: 0.78 μM compound, read-out: % Synapse rescue.

On to `Cc1ccc(S(=O)(=O)/C=C/C#N)cc1` [BAY 11-7082], for which, in assay [1] (6.25 μM compound), the “% B3T rescue” value is given as 38%, the “% Cux2 rescue” value came to 70%, the “% MAP2 rescue” value came to 34% and the “% Synapse rescue” value is −2%. Also, in assay [1] (12.5 μM compound), the “% B3T rescue” value is reported as 31%, the “% Cux2 rescue” value is on record as 85%, the “% MAP2 rescue” value is reported as 36% and the “% Synapse rescue” value is listed as −3%. Further, in assay [1] (25 μM compound), the “% B3T rescue” value came out at 14%, the “% Cux2 rescue” value is reported as 82%, the “% MAP2 rescue” value came out at 17% and the “% Synapse rescue” value is on record as −13%. Moreover, in assay [2] (50.00 μM compound), the “% B3T rescue” value is listed as 44%, the “% MAP2 rescue” value was 21% and the “% Synapse rescue” value is given as −1%.

`CC1=NN(c2ccc(C(=O)O)cc2)C(=O)/C1=C\c1ccc(-c2cc(C)c(C)cc2[N+](=O)[O-])o1` [C 646]: the “% B3T rescue” value in assay [1] (50 μM compound) turned out to be 49%; in assay [2] (0.78 μM compound), 27%; in assay [2] (12.50 μM compound), 42%; in assay [2] (50.00 μM compound) it was 53%. The “% Cux2 rescue” value in assay [1] (50 μM compound) is on record as 25%. Also, the “% MAP2 rescue” value came to 54% in assay [1] (50 μM compound), 37% in assay [2] (0.78 μM compound), 41% in assay [2] (12.50 μM compound) and 37% in assay [2] (50.00 μM compound). The “% Synapse rescue” value in assay [1] (50 μM compound) came to 19%; in assay [2] (0.78 μM compound), 28%; in assay [2] (12.50 μM compound), 38%; in assay [2] (50.00 μM compound), 39%.

Turning to `CCCC[C@@H](C=O)NC(=O)[C@H](CC(C)C)NC(=O)OCc1ccccc1` [Calpeptin], the percent rescue from sAβ42s toxicity at 6.25 µM was determined as 9% in assay [1] (setting [3]), 70% in assay [1] (setting [4]), 22% in assay [1] (setting [5]) and 6% in assay [1] (setting [6]). The percent rescue from sAβ42s toxicity at 12.5 µM in assay [1] (12.5 μM compound, read-out: % B3T rescue) worked out at 4%; in assay [1] (12.5 μM compound, read-out: % Cux2 rescue) it was 79%; in assay [1] (12.5 μM compound, read-out: % MAP2 rescue), 27%; in assay [1] (12.5 μM compound, read-out: % Synapse rescue) it was 11%. The percent rescue from sAβ42s toxicity at 25 µM was 7% in assay [1] (setting [7]), 91% in assay [1] (setting [8]), 39% in assay [1] (setting [9]) and 9% in assay [1] (setting [10]). The percent rescue from sAβ42s toxicity at 50 µM in assay [1] (setting [11]) turned out to be 20%; in assay [1] (setting [12]) it was 96%; in assay [1] (setting [13]), 36%; in assay [1] (setting [14]), 15%; in assay [2] (setting [15]), 66%; in assay [2] (setting [16]), 34%. Also, in assay [2] (setting [17]), the percent rescue from sAβ42s toxicity at 50 µM amounted to 34%.

With `COc1cccc2c1C(=O)c1c(O)c3c(c(O)c1C2=O)C[C@@](O)(C(C)=O)C[C@@H]3O[C@H]1C[C@H](N)[C@H](O)[C@H](C)O1` [Daunorubicin hydrochloride], the percent rescue from sAβ42s toxicity at 25 µM was 73% in assay [1] (setting [7]), -23% in assay [1] (setting [8]), -122% in assay [1] (setting [9]) and -27% in assay [1] (setting [10]). The percent rescue from sAβ42s toxicity at 50 µM was 101% in assay [1] (setting [11]), -39% in assay [1] (setting [12]), -124% in assay [1] (setting [13]) and -27% in assay [1] (setting [14]). Further, the percent rescue from sAβ42s toxicity at 0.78 µM is 68% in assay [2] (setting [18]), 74% in assay [2] (setting [19]) and 52% in assay [2] (setting [20]).

For the molecule `N#Cc1ccnc(Nc2cc(C3CCN(C4COC4)CC3)cc(N3CCC(F)(F)C3)n2)c1` [GNE-3511], the percent rescue from sAβ42s toxicity at 6.25 µM is 15% in assay [1] (setting [3]), 18% in assay [1] (setting [4]), 32% in assay [1] (setting [5]) and 7% in assay [1] (setting [6]). Moreover, the percent rescue from sAβ42s toxicity at 25 µM in assay [1] (setting [7]) worked out at 17%; in assay [1] (setting [8]), 36%; in assay [1] (setting [9]) it was 49%; in assay [1] (setting [10]) it was 14%. Moreover, the percent rescue from sAβ42s toxicity at 50 µM in assay [1] (setting [11]) was 58%; in assay [1] (setting [12]) it was 81%; in assay [1] (setting [13]), 87%; in assay [1] (setting [14]), 47%; in assay [2] (setting [15]), 65%; in assay [2] (setting [16]) it was 66%. The percent rescue from sAβ42s toxicity at 50 µM in assay [2] (setting [17]) was determined as 56%. For the same molecule, the percent rescue from sAβ42s toxicity at 0.78 µM in assay [2] (setting [18]) was determined as 85%; in assay [2] (setting [19]), 91%; in assay [2] (setting [20]), 79%. Besides, the percent rescue from sAβ42s toxicity at 3.13 µM in assay [2] (read-out: % B3T rescue) was 81%; in assay [2] (read-out: % MAP2 rescue) it was 95%; in assay [2] (read-out: % Synapse rescue) it was 77%. Also, the percent rescue from sAβ42s toxicity at 12.5 µM in assay [2] (12.50 μM compound, read-out: % B3T rescue) worked out at 82%; in assay [2] (12.50 μM compound, read-out: % MAP2 rescue), 102%; in assay [2] (12.50 μM compound, read-out: % Synapse rescue) it was 81%.
